Molecular target: T1, Recombinant human renin (Homo sapiens, UniProt P00797)
T1 construct: isolate the active form (residues 67-406); made in house; host or cells: FreeStyle 293-F cells (transient expression of pcDNA3.1(+)/hREN)
T1 sequence (P00797 67-406): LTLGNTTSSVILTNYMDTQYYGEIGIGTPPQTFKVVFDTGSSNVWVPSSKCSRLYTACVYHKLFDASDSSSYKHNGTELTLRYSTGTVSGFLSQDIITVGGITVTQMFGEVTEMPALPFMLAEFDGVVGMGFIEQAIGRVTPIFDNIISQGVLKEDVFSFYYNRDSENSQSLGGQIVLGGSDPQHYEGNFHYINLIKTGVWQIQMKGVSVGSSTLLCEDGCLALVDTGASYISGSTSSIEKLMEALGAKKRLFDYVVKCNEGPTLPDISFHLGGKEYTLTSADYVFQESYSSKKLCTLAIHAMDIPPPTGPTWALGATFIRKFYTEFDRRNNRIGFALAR
Test: In vitro enzymatic activity assay of renin inhibitors (fluorogenic peptide substrate)
Assay type: biochemical
Conditions: read-out: IC50 of Exemplified Compounds Against Renin
Procedure, shortened: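 Enzyme: recombinant human renin, 3 nM final, 10 min compound pre-incubation at 37 °C; buffer 50 mM Hepes pH 7.4 with 0.1 mg/mL BSA or extra 2% BSA; 5% DMSO.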

In the case of `CCOCCNC(=O)c1ccc(-c2ccc(C[C@@H](N)CC(=O)N3CCC[C@@H](c4nc5ccccc5n4CCCOC)C3)cc2)cc1` [Compound 178, 4′-((R)-2-amino-4-((R)-3-(1-(3-methoxypropyl)-1H-benzo[d]imidazol-2-yl)piperidin-1-yl)-4-oxobutyl)-N-(2-ethoxyethyl)biphenyl-4-carboxamide], the IC50 is reported as under 100 nM.
For `N[C@H](Cc1ccccc1)C(=O)N1CCCC(c2nc3ccccc3[nH]2)C1` (stereo partly drawn) [Compound 58, (2R)-1-(3-(1H-benzo[d]imidazol-2-yl)piperidin-1-yl)-2-amino-3-phenylpropan-1-one], the IC50 was over 1000 nM.
Work on `COCCCn1c([C@@H]2CCCN(C(=O)[C@@H]3CN(C(=O)Nc4ccc(OC)cc4)C[C@H]3N)C2)nc2ccccc21` [Compound 415, (3S,4R)-3-amino-N-(4-methoxyphenyl)-4-((R)-3-(1-(3-methoxypropyl)-1H-benzo[d]imidazol-2-yl)piperidine-1-carbonyl)pyrrolidine-1-carboxamide] yielded an IC50 of over 1000 nM.
`COCCCn1c([C@@H]2CCCN(C(=O)[C@@H]3CN(C(=O)C4CCCCC4)C[C@H]3N)C2)nc2ccccc21` [Compound 405, ((3R,4S)-4-amino-1-(cyclohexanecarbonyl)pyrrolidin-3-yl)((R)-3-(1-(3-methoxypropyl)-1H-benzo[d]imidazol-2-yl)piperidin-1-yl)methanone] was tested, and the IC50 was over 1000 nM.
In the case of `COCCCn1c([C@@H]2CCCN(C(=O)C[C@H](N)Cc3ccc(-c4ccc5c(c4)CC(=O)N5C)cc3)C2)nc2c(C)cccc21` [Compound 498, 5-(4-((R)-2-amino-4-((R)-3-(1-(3-methoxypropyl)-4-methyl-1H-benzo[d]imidazol-2-yl)piperidin-1-yl)-4-oxobutyl)phenyl)-1-methylindolin-2-one], the IC50 is reported as under 100 nM.
In the case of `COCCCn1c([C@@H]2CCCN(C(=O)[C@@H]3CN(C(=O)NC4CCCCC4)C[C@H]3N)C2)nc2ccccc21` [Compound 386, (3S,4R)-3-amino-N-cyclohexyl-4-((R)-3-(1-(3-methoxypropyl)-1H-benzo[d]imidazol-2-yl)piperidine-1-carbonyl)pyrrolidine-1-carboxamide], the IC50 is reported as over 1000 nM.
`COCCCn1c([C@@H]2CCCN(C(=O)C[C@H](N)Cc3ccc(-c4ccc5[nH]ncc5c4)cc3)C2)nc2c(C)cccc21` [Compound 499, (R)-4-(4-(1H-indazol-5-yl)phenyl)-3-amino-1-((R)-3-(1-(3-methoxypropyl)-4-methyl-1H-benzo[d]imidazol-2-yl)piperidin-1-yl)butan-1-one] was tested, and the IC50 was under 100 nM.
`COCCCn1c([C@@H]2CCCN(C(=O)C[C@H](N)Cc3ccc(-c4c(C)n[nH]c4C)cc3)C2)nc2ccccc21` [Compound 137, (R)-3-amino-4-(4-(3,5-dimethyl-1H-pyrazol-4-yl)phenyl)-1-((R)-3-(1-(3-methoxypropyl)-1H-benzo[d]imidazol-2-yl)piperidin-1-yl)butan-1-one] gave an IC50 of under 100 nM.
`N[C@@H](CC(=O)N1CCCC(c2nc3ccccc3[nH]2)C1)Cc1ccc2ccccc2c1` (stereo partly drawn) [Compound 44, (3R)-1-(3-(1H-benzo[d]imidazol-2-yl)piperidin-1-yl)-3-amino-4-(naphthalen-2-yl)butan-1-one] was tested, and the IC50 was over 1000 nM.
In the case of `COCCCn1c([C@@H]2CCCN(C(=O)C[C@H](N)CNC(=O)c3ccc(C)c(C)c3)C2)nc2ccccc21` [Compound 293, N-((S)-2-amino-4-((R)-3-(1-(3-methoxypropyl)-1H-benzo[d]imidazol-2-yl)piperidin-1-yl)-4-oxobutyl)-3,4-dimethylbenzamide], the IC50 is reported as 100 to 1000 nM.
`C[C@@H](N)C(=O)N1CCCC(c2nc3ccccc3[nH]2)C1` (stereo partly drawn) [Compound 50, (2R)-1-(3-(1H-benzo[d]imidazol-2-yl)piperidin-1-yl)-2-aminopropan-1-one] showed an IC50 of over 1000 nM.
`COCCCn1c([C@@H]2CCCN(C(=O)C[C@H](N)CNC(=O)c3ccc(-c4ccsc4)cc3)C2)nc2ccccc21` [Compound 261, N-((S)-2-amino-4-((R)-3-(1-(3-methoxypropyl)-1H-benzo[d]imidazol-2-yl)piperidin-1-yl)-4-oxobutyl)-4-(thiophen-3-yl)benzamide] showed an IC50 of under 100 nM.
In the case of `COCCCn1c([C@@H]2CCCN(C(=O)[C@@H]3CN(S(=O)(=O)c4c(Cl)cc(Br)cc4Cl)C[C@H]3N)C2)nc2ccccc21` [Compound 339], the IC50 is reported as 100 to 1000 nM.
`COCCCn1c([C@@H]2CCCN(C(=O)[C@@H]3CN(S(=O)(=O)c4ccc5c(c4)OCCO5)C[C@H]3N)C2)nc2ccccc21` [Compound 337, ((3R,4S)-4-amino-1-(2,3-dihydrobenzo[b][1,4]dioxin-6-ylsulfony)pyrrolidin-3-yl)((R)-3-(1-(3-methoxypropyl)-1H-benzo[d]imidazol-2-yl)piperidin-1-yl)methanone] gave an IC50 of over 1000 nM.
`COCCCn1c([C@@H]2CCCN(C(=O)C[C@H](N)CNC(=O)Nc3ccc(OC)cc3C)C2)nc2ccccc21` [Compound 292, 1-((S)-2-amino-4-((R)-3-(1-(3-methoxypropyl)-1H-benzo[d]imidazol-2-yl)piperidin-1-yl)-4-oxobutyl)-3-(4-methoxy-2-methylphenyl)urea] was tested, and the IC50 was 100 to 1000 nM.
For `COCCCn1c([C@@H]2CCCN(C(=O)C[C@H](N)CNC(=O)c3ccccc3Cl)C2)nc2ccccc21` [Compound 320, N-((S)-2-amino-4-((R)-3-(1-(3-methoxypropyl)-1H-benzo[d]imidazol-2-yl)piperidin-1-yl)-4-oxobutyl)-2-chlorobenzamide], the IC50 was 100 to 1000 nM.
In the case of `COCCCn1c([C@@H]2CCCN(C(=O)C[C@H](N)Cc3ccc(-c4ccc(OC)cc4)cc3)C2)nc2ccccc21` [Compound 156, (R)-3-amino-4-(4′-methoxybiphenyl-4-yl)-1((R)-3-(1-(3-methoxypropyl)-1H-benzo[d]imidazol-2-yl)piperidin-1-yl)butan-1-one], the IC50 is reported as under 100 nM.
